What was measured:
[1] = system: barnyardgrass; assay: Test B flooded paddy test; format: in vivo, Echinochloa crus-galli; conditions: Flood, scale of 0 to 100 where 0 is no effect and 100 is complete control
Summary of the method: (§1)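 First, plants reach the 2-leaf stage; next, pots are flooded to 3 cm and compound is delivered into the water; finally, after 13 to 15 greenhouse days at constant depth, injury is graded visually from 0 to 100 against controls.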

[2] = system: ryegrass, Italian; assay: Test A pre-/postemergence herbicide test; format: in vivo, Lolium multiflorum
Summary of the method: (§2)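 Scoring was visual, relative to untreated controls, on a 0–100 scale after about 10 greenhouse days. Preemergence treatment used a directed soil spray over seeded loam/sand; postemergence treatment targeted one- to two-leaf plants of 2–10 cm.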

[3] = system: pigweed; assay: Test A pre-/postemergence herbicide test; format: in vivo, Amaranthus retroflexus
Summary of the method: as §2

[4] = system: ragweed; assay: Test A pre-/postemergence herbicide test; format: in vivo, Ambrosia elatior
Summary of the method: as §2

[5] = system: sedge, umbrella; assay: Test B flooded paddy test; format: in vivo, Cyperus difformis; conditions: Flood, scale of 0 to 100 where 0 is no effect and 100 is complete control
Summary of the method: as §1

[6] = system: ducksalad; assay: Test B flooded paddy test; format: in vivo, Heteranthera limosa; conditions: Flood, scale of 0 to 100 where 0 is no effect and 100 is complete control
Summary of the method: as §1

[7] = system: corn; assay: Test A pre-/postemergence herbicide test; format: in vivo, Zea mays; conditions: Postemergence
Summary of the method: as §2

[8] = system: wheat; assay: Test A pre-/postemergence herbicide test; format: in vivo, Triticum aestivum; conditions: Postemergence
Summary of the method: as §2

[9] = system: barnyardgrass; assay: Test A pre-/postemergence herbicide test; format: in vivo, Echinochloa crus-galli
Summary of the method: as §2

[10] = system: galium; assay: Test A postemergence herbicide test; format: in vivo, Galium aparine
Summary of the method: (§3)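 Young potted plants in a loam–sand mix, one- to two-leaf stage and 2–10 cm tall, receive the test chemical postemergence and stay in a greenhouse for approximately 10 days. Injury is then judged by eye against untreated plants, scored 0 (none) to 100 (complete control).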

[11] = system: blackgrass; assay: Test A postemergence herbicide test; format: in vivo, Alopecurus myosuroides
Summary of the method: as §3

[12] = system: giant foxtail; assay: Test A pre-/postemergence herbicide test; format: in vivo, Setaria faberii
Summary of the method: as §2

[13] = system: rice; assay: Test B flooded paddy test; format: in vivo, Oryza sativa; conditions: Flood, scale of 0 to 100 where 0 is no effect and 100 is complete control
Summary of the method: as §1

[14] = system: kochia; assay: Test A pre-/postemergence herbicide test; format: in vivo, Kochia scoparia
Summary of the method: as §2

[15] = 125 g ai/ha, visual rating, 0 to 100 scale, 0 no effect, 100 complete control, approximately 10 days, preemergence
[16] = Postemergence, 125 g ai/ha, 0 to 100 scale, 0 is no effect, 100 is complete control
[17] = preemergence, 500 g ai/ha, 0 to 100 scale, 0 is no effect and 100 is complete control
[18] = 125 g ai/ha, 0 to 100 scale, 0 is no effect, 100 is complete control
[19] = Postemergence, 500 g ai/ha, 0 to 100 scale (0 no effect, 100 complete control)
[20] = 500 g ai/ha, 0 to 100 scale (0 no effect, 100 complete control)

| Compound | Plant response rating, Barnyardgrass ([1]; 1000 g ai/ha) | Plant response rating, Ryegrass, Italian [2, 15] | Plant response rating, Ryegrass, Italian [2, 16] | Plant response rating, Ryegrass, Italian [2, 17] | Plant response rating, Pigweed [3, 15] | Plant response rating, Pigweed [3, 16] | Plant response rating, Pigweed [3, 17] | Plant response rating, Ragweed [4, 15] | Plant response rating, Ragweed [4, 16] | Plant response rating, Ragweed [4, 17] | Plant response rating, Sedge, Umbrella ([5]; 1000 g ai/ha) | Plant response rating, Ducksalad ([6]; 1000 g ai/ha) | Plant response rating, Corn [7, 18] | Plant response rating, Wheat [8, 18] | Plant response rating, Barnyardgrass [9, 15] | Plant response rating, Barnyardgrass [9, 16] | Plant response rating, Barnyardgrass [9, 17] | Plant response rating, Galium [10, 18] | Plant response rating, Blackgrass [11, 18] | Plant response rating, Foxtail, Giant [12, 15] | further results |
| --- | --- | --- | --- | --- | --- | --- | --- | --- | --- | --- | --- | --- | --- | --- | --- | --- | --- | --- | --- | --- | --- |
| O=C1NCC(c2ccc(-c3ccccc3F)cc2)C1C(=O)Nc1cccc(F)c1F (stereo not shown) [Compound 235] | 45 | 0 | 0 | 0 | 0 | 0 | 0 | 0 | 0 | 0 | 0 | 50 | 0 | 0 | 0 | 10 | 60 | 50 | 0 | 40 | Plant response rating, Barnyardgrass ([1]; 250 g ai/ha): 0; Ryegrass, Italian plant response rating (0 to 100 scale, 0 is no effect, 100 is complete control) ([2]; Postemergence, 500 g ai/ha): 0; Pigweed plant response rating (0 to 100 scale, 0 is no effect, 100 is complete control) ([3]; Postemergence, 500 g ai/ha): 50; Ragweed plant response rating (0 to 100 scale, 0 is no effect, 100 is complete control) ([4]; Postemergence, 500 g ai/ha): 0; Plant response rating, Sedge, Umbrella ([5]; 250 g ai/ha): 0; Plant response rating, Ducksalad ([6]; 250 g ai/ha): 0; Corn plant response rating (0 to 100 scale, 0 is no effect, 100 is complete control) ([7]; 500 g ai/ha): 20; Wheat plant response rating (0 to 100 scale, 0 is no effect, 100 is complete control) ([8]; 500 g ai/ha): 0; Barnyardgrass plant response rating (0 to 100 scale, 0 is no effect, 100 is complete control) ([9]; Postemergence, 500 g ai/ha): 20; Galium plant response rating (0 to 100 scale, 0 is no effect, 100 is complete control) ([10]; 500 g ai/ha): 70; Blackgrass plant response rating (0 to 100 scale, 0 is no effect, 100 is complete control) ([11]; 500 g ai/ha): 20; Plant response rating, Foxtail, Giant [12, 16]: 10; Foxtail, Giant plant response rating (0 to 100 scale, 0 is no effect, 100 is complete control) ([12]; Postemergence, 500 g ai/ha): 50; Plant response rating, Foxtail, Giant [12, 17]: 80; Plant response rating, Rice ([13]; 250 g ai/ha): 0; Plant response rating, Rice ([13]; 1000 g ai/ha): 0; Plant response rating, Kochia [14, 15]: 0; Plant response rating, Kochia [14, 16]: 0; Kochia plant response rating (0 to 100 scale, 0 is no effect, 100 is complete control) ([14]; Postemergence, 500 g ai/ha): 20; Plant response rating, Kochia [14, 17]: 0 |
| O=C1NCC(c2ccc(-c3ccccc3C(F)(F)F)cc2)C1C(=O)Nc1cccc(F)c1F (stereo not shown) [Compound 236] | 40 | 0 | 0 | 50 | 0 | 0 | 0 | 0 | 0 | 30 | 0 | 70 | 0 | 0 | 0 | 0 | 0 | 0 | 0 | 0 | Ryegrass, Italian plant response rating (0 to 100 scale, 0 is no effect, 100 is complete control) ([2]; Postemergence, 500 g ai/ha): 0; Pigweed plant response rating (0 to 100 scale, 0 is no effect, 100 is complete control) ([3]; Postemergence, 500 g ai/ha): 0; Ragweed plant response rating (0 to 100 scale, 0 is no effect, 100 is complete control) ([4]; Postemergence, 500 g ai/ha): 0; Corn plant response rating (0 to 100 scale, 0 is no effect, 100 is complete control) ([7]; 500 g ai/ha): 0; Wheat plant response rating (0 to 100 scale, 0 is no effect, 100 is complete control) ([8]; 500 g ai/ha): 0; Barnyardgrass plant response rating (0 to 100 scale, 0 is no effect, 100 is complete control) ([9]; Postemergence, 500 g ai/ha): 0; Galium plant response rating (0 to 100 scale, 0 is no effect, 100 is complete control) ([10]; 500 g ai/ha): 0; Blackgrass plant response rating (0 to 100 scale, 0 is no effect, 100 is complete control) ([11]; 500 g ai/ha): 0; Plant response rating, Foxtail, Giant [12, 16]: 0; Foxtail, Giant plant response rating (0 to 100 scale, 0 is no effect, 100 is complete control) ([12]; Postemergence, 500 g ai/ha): 0; Plant response rating, Foxtail, Giant [12, 17]: 0; Plant response rating, Rice ([13]; 1000 g ai/ha): 0; Plant response rating, Kochia [14, 15]: 0; Plant response rating, Kochia [14, 16]: 0; Kochia plant response rating (0 to 100 scale, 0 is no effect, 100 is complete control) ([14]; Postemergence, 500 g ai/ha): 0; Plant response rating, Kochia [14, 17]: 0 |
| COc1ccc(C2CNC(=O)C2C(=O)Nc2ccccc2C(F)(F)F)cc1C(F)(F)F (stereo not shown) [Compound 240] | 70 | 0 | 0 | 0 | 0 | 0 | 0 | 0 | 0 | 0 | 0 | 85 | 0 | 0 | 20 | 30 | 50 | 0 | 0 | 70 | Plant response rating, Ryegrass, Italian [2, 19]: 0; Plant response rating, Pigweed [3, 19]: 0; Plant response rating, Ragweed [4, 19]: 0; Plant response rating, Corn [7, 20]: 20; Plant response rating, Wheat [8, 20]: 20; Plant response rating, Barnyardgrass [9, 19]: 90; Plant response rating, Galium [10, 20]: 0; Plant response rating, Blackgrass [11, 20]: 0; Plant response rating, Foxtail, Giant [12, 16]: 40; Plant response rating, Foxtail, Giant [12, 19]: 80; Plant response rating, Foxtail, Giant [12, 17]: 90; Plant response rating, Rice ([13]; 1000 g ai/ha): 0; Plant response rating, Kochia [14, 15]: 0; Plant response rating, Kochia [14, 16]: 0; Plant response rating, Kochia [14, 19]: 0; Plant response rating, Kochia [14, 17]: 0 |

From patent US10294202B2, “Pyrrolidinones as herbicides” (FMC Corporation, priority 2013, dated 2019)
